Test results: PubChem BioAssay (NCI)
Where “and” joins values, the source holds several entries; their conditions need not be identical. Equal values may be shown once.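 96-well plates; 48 h exposure; 5 concentrations. Endpoints by linear interpolation between flanking doses. Not reached: highest tested concentration assigned. GI50 = concentration required for 50% inhibition of growth. TGI marks complete inhibition of growth.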 Where a SMILES comes first, the peptide text is derived from it. The star is where a group is joined. Fmoc = O=C(OCC1c2ccccc2-c2ccccc21)*; Boc = CC(C)(C)OC(=O)*; OtBu = CC(C)(C)O*

How the values were obtained:
Assay in all cases: NCI-60 cell line screen, 48 h
K-562 leukemia = tested on: K-562 leukemia
OVCAR-3 ovarian = tested on: OVCAR-3 ovarian
SF-539 CNS = tested on: SF-539 CNS
RXF 393 renal = tested on: RXF 393 renal
OVCAR-4 ovarian = tested on: OVCAR-4 ovarian
NCI-H23 lung = tested on: NCI-H23 lung
SK-OV-3 ovarian = tested on: SK-OV-3 ovarian
DU-145 prostate = tested on: DU-145 prostate
ACHN renal = tested on: ACHN renal
TK-10 renal = tested on: TK-10 renal
SK-MEL-28 melanoma = tested on: SK-MEL-28 melanoma
MCF7 breast = tested on: MCF7 breast
MDA-MB-435 = tested on: MDA-MB-435
SR leukemia = tested on: SR leukemia
NCI-H226 lung = tested on: NCI-H226 lung
KM12 colon = tested on: KM12 colon
HT29 colon = tested on: HT29 colon
SN12C renal = tested on: SN12C renal
SK-MEL-5 melanoma = tested on: SK-MEL-5 melanoma
BT-549 breast = tested on: BT-549 breast
UACC-62 melanoma = tested on: UACC-62 melanoma
SNB-75 CNS = tested on: SNB-75 CNS
HL-60(TB) leukemia = tested on: HL-60(TB) leukemia
MDA-N = tested on: MDA-N
OVCAR-5 ovarian = tested on: OVCAR-5 ovarian
MALME-3M melanoma = tested on: MALME-3M melanoma
UO-31 renal = tested on: UO-31 renal
SK-MEL-2 melanoma = tested on: SK-MEL-2 melanoma
786-0 renal = tested on: 786-0 renal
PC-3 prostate = tested on: PC-3 prostate
A498 renal = tested on: A498 renal
SNB-19 CNS = tested on: SNB-19 CNS
A549 NSCLC = tested on: A549 NSCLC
NCI-H522 lung = tested on: NCI-H522 lung
SW-620 colon = tested on: SW-620 colon
IGROV1 ovarian = tested on: IGROV1 ovarian
RPMI-8226 leukemia = tested on: RPMI-8226 leukemia
M14 melanoma = tested on: M14 melanoma
SF-295 CNS = tested on: SF-295 CNS
NCI/ADR-RES ovarian = tested on: NCI/ADR-RES ovarian
EKVX NSCLC = tested on: EKVX NSCLC
HS 578T breast = tested on: HS 578T breast
MDA-MB-231 breast = tested on: MDA-MB-231 breast
HCT-116 colon = tested on: HCT-116 colon
U251 CNS = tested on: U251 CNS
OVCAR-8 ovarian = tested on: OVCAR-8 ovarian
HOP-92 NSCLC = tested on: HOP-92 NSCLC
HCT-15 colon = tested on: HCT-15 colon
MOLT-4 leukemia = tested on: MOLT-4 leukemia
SF-268 CNS = tested on: SF-268 CNS
NCI-H460 lung = tested on: NCI-H460 lung
T-47D breast = tested on: T-47D breast
COLO 205 colon = tested on: COLO 205 colon
LOX IMVI melanoma = tested on: LOX IMVI melanoma
CAKI-1 renal = tested on: CAKI-1 renal
HOP-62 NSCLC = tested on: HOP-62 NSCLC
HCC-2998 colon = tested on: HCC-2998 colon
CCRF-CEM leukemia = tested on: CCRF-CEM leukemia
UACC-257 melanoma = tested on: UACC-257 melanoma

`Cc1ccc(C2(C)CC/C(=N/N=C3/CCC(C)(c4ccc(C)c(C)c4)c4cc(C)c(C)cc43)c3cc(C)c(C)cc32)cc1C` (stereo not given) showed a TGI (K-562 leukemia) of over 100 µM, a TGI (OVCAR-3 ovarian) of over 100 µM and a TGI (SF-539 CNS) of over 100 µM. For the same molecule, the TGI (RXF 393 renal) was over 100 µM, the TGI (OVCAR-4 ovarian) was over 100 µM and the TGI (NCI-H23 lung) was over 100 µM. For the same molecule, the TGI (SK-OV-3 ovarian) was over 100 µM, the TGI (DU-145 prostate) was over 100 µM and the TGI (ACHN renal) was over 100 µM. For the same molecule, the TGI (TK-10 renal) was over 100 µM, the TGI (SK-MEL-28 melanoma) was over 100 µM and the TGI (MCF7 breast) was over 100 µM. The TGI (MDA-MB-435) was over 100 µM, the TGI (SR leukemia) was over 100 µM and the TGI (NCI-H226 lung) was over 100 µM. It also gave a TGI (KM12 colon) of over 100 µM, a TGI (HT29 colon) of over 100 µM and a TGI (SN12C renal) of over 100 µM. It also gave a TGI (SK-MEL-5 melanoma) of over 100 µM, a TGI (BT-549 breast) of over 100 µM and a TGI (UACC-62 melanoma) of over 100 µM. The TGI (SNB-75 CNS) was over 100 µM, the TGI (HL-60(TB) leukemia) was over 100 µM and the TGI (MDA-N) was over 100 µM. For the same molecule, the TGI (OVCAR-5 ovarian) was over 100 µM, the TGI (MALME-3M melanoma) was over 100 µM and the TGI (UO-31 renal) was over 100 µM. The TGI (SK-MEL-2 melanoma) was over 100 µM, the TGI (786-0 renal) was over 100 µM and the TGI (PC-3 prostate) was over 100 µM. The TGI (A498 renal) was over 100 µM, the TGI (SNB-19 CNS) was over 100 µM and the TGI (A549 NSCLC) was over 100 µM. The TGI (NCI-H522 lung) was over 100 µM, the TGI (SW-620 colon) was over 100 µM and the TGI (IGROV1 ovarian) was over 100 µM. The TGI (RPMI-8226 leukemia) was over 100 µM, the TGI (M14 melanoma) was over 100 µM and the TGI (SF-295 CNS) was over 100 µM. For the same molecule, the TGI (NCI/ADR-RES ovarian) was over 100 µM, the TGI (EKVX NSCLC) was over 100 µM and the TGI (HS 578T breast) was over 100 µM. For the same molecule, the TGI (MDA-MB-231 breast) was over 100 µM, the TGI (HCT-116 colon) was over 100 µM and the TGI (U251 CNS) was over 100 µM. The TGI (OVCAR-8 ovarian) was over 100 µM, the TGI (HOP-92 NSCLC) was over 100 µM and the TGI (HCT-15 colon) was over 100 µM. For the same molecule, the TGI (MOLT-4 leukemia) was over 100 µM, the TGI (SF-268 CNS) was over 100 µM and the TGI (NCI-H460 lung) was over 100 µM. For the same molecule, the TGI (T-47D breast) was over 100 µM, the TGI (COLO 205 colon) was over 100 µM and the TGI (LOX IMVI melanoma) was over 100 µM. For the same molecule, the TGI (CAKI-1 renal) was over 100 µM and the TGI (HOP-62 NSCLC) was over 100 µM.

With `CC(C)(C)OC(=O)CCC(NC(=O)OCC1c2ccccc2-c2ccccc21)C(=O)NC(Cc1c[nH]c2ccccc12)C(=O)NC(CCCCNC(=O)OC(C)(C)C)C(=O)N1CCCC1C(=O)NCC(N)=O` (stereo not given) (Fmoc-E(OtBu)WK(Boc)PG-NH2; configuration not given here) the TGI (K-562 leukemia) was over 100 µM, the TGI (OVCAR-3 ovarian) was 37.4 µM and 51 µM and the TGI (SF-539 CNS) was over 100 µM. The TGI (RXF 393 renal) was 28.3 µM and 50.4 µM, the TGI (OVCAR-4 ovarian) was 25.5 µM and 31.2 µM and the GI50 (NCI-H23 lung) was 14.2 µM and 32.7 µM. For the same molecule, the TGI (NCI-H23 lung) was 27.2 µM and > 100 µM, the TGI (HCC-2998 colon) was over 100 µM and the TGI (SK-OV-3 ovarian) was > 100 µM and 93.9 µM. For the same molecule, the GI50 (DU-145 prostate) was 16.1 µM and > 100 µM, the TGI (DU-145 prostate) was 29.6 µM and > 100 µM and the TGI (ACHN renal) was 30 µM and 35 µM. For the same molecule, the GI50 (TK-10 renal) was 36.5 µM and > 100 µM, the TGI (TK-10 renal) was over 100 µM and the TGI (SK-MEL-28 melanoma) was over 100 µM. The TGI (MCF7 breast) was over 100 µM, the GI50 (MDA-MB-435) was 18 µM and 42.7 µM and the TGI (MDA-MB-435) was 31.9 µM and > 100 µM. The TGI (SR leukemia) was 52.7 µM and > 100 µM, the GI50 (NCI-H226 lung) was 15.3 µM and 78.8 µM and the TGI (NCI-H226 lung) was 32.5 µM and > 100 µM. For the same molecule, the GI50 (KM12 colon) was 16.2 µM and 35.9 µM, the TGI (KM12 colon) was 33.1 µM and > 100 µM and the TGI (HT29 colon) was over 100 µM. For the same molecule, the GI50 (SN12C renal) was 18.3 µM and 67.4 µM, the TGI (SN12C renal) was 32.2 µM and > 100 µM and the TGI (SK-MEL-5 melanoma) was 29.7 µM and > 100 µM. The TGI (BT-549 breast) was 29.5 µM and 38.3 µM, the TGI (UACC-62 melanoma) was 28.2 µM and 39.9 µM and the TGI (SNB-75 CNS) was 52.1 µM and 29.9 µM. The GI50 (HL-60(TB) leukemia) was 3.8 µM and 33.5 µM, the TGI (HL-60(TB) leukemia) was over 100 µM and the TGI (MDA-N) was 31.6 µM and > 100 µM. The GI50 (OVCAR-5 ovarian) was 45.6 µM and > 100 µM, the TGI (OVCAR-5 ovarian) was over 100 µM and the TGI (MALME-3M melanoma) was 33.9 µM and 78.9 µM. For the same molecule, the GI50 (UO-31 renal) was 3.85 µM and 14.4 µM, the TGI (UO-31 renal) was 14.7 µM and 28.1 µM and the TGI (SK-MEL-2 melanoma) was 39.2 µM and 33.5 µM. The TGI (786-0 renal) was 31.3 µM and 34.9 µM, the GI50 (PC-3 prostate) was 16.4 µM and > 100 µM and the TGI (PC-3 prostate) was 29.9 µM and > 100 µM. The TGI (SNB-19 CNS) was 72.9 µM and 40.6 µM, the GI50 (CCRF-CEM leukemia) was 67.3 µM and 31.5 µM and the TGI (CCRF-CEM leukemia) was > 100 µM and 73.7 µM. The GI50 (A549 NSCLC) was 17.6 µM and > 100 µM, the TGI (A549 NSCLC) was 31.5 µM and > 100 µM and the TGI (NCI-H522 lung) was 4.16 µM. The GI50 (SW-620 colon) was 19 µM and 46.9 µM, the TGI (SW-620 colon) was 33.6 µM and > 100 µM and the TGI (IGROV1 ovarian) was 29.5 µM and > 100 µM. For the same molecule, the TGI (RPMI-8226 leukemia) was 35.6 µM and > 100 µM, the TGI (M14 melanoma) was 90.5 µM and > 100 µM and the TGI (SF-295 CNS) was over 100 µM. The GI50 (NCI/ADR-RES ovarian) was 16.9 µM and 68.5 µM, the TGI (NCI/ADR-RES ovarian) was 30.6 µM and > 100 µM and the GI50 (EKVX NSCLC) was 17.9 µM and > 100 µM. The TGI (EKVX NSCLC) was 34.8 µM and > 100 µM, the TGI (HS 578T breast) was 59.3 µM and 76.1 µM and the TGI (MDA-MB-231 breast) was 25.2 µM and 28.9 µM. The GI50 (HCT-116 colon) was 18.3 µM and 48.1 µM, the TGI (HCT-116 colon) was 32.2 µM and > 100 µM and the TGI (U251 CNS) was 31.1 µM and 31 µM. The TGI (OVCAR-8 ovarian) was 33.4 µM and > 100 µM, the TGI (HOP-92 NSCLC) was 31.4 µM and 35.7 µM and the GI50 (HCT-15 colon) was 12.5 µM and 73.9 µM. For the same molecule, the TGI (HCT-15 colon) was 24.9 µM and > 100 µM, the TGI (MOLT-4 leukemia) was 61.7 µM and 81.7 µM and the GI50 (UACC-257 melanoma) was 40.4 µM and 94.9 µM. The TGI (UACC-257 melanoma) was over 100 µM, the GI50 (SF-268 CNS) was 21.5 µM and 44.7 µM and the TGI (SF-268 CNS) was 37.2 µM and > 100 µM. For the same molecule, the TGI (NCI-H460 lung) was 30.4 µM and 68.9 µM, the TGI (T-47D breast) was over 100 µM and the GI50 (COLO 205 colon) was 17.1 µM and 41.9 µM. For the same molecule, the TGI (COLO 205 colon) was 32.7 µM and > 100 µM, the TGI (LOX IMVI melanoma) was 24.5 µM and 44.7 µM and the GI50 (HOP-62 NSCLC) was 18 µM and 42.2 µM. The TGI (HOP-62 NSCLC) was 31.8 µM and > 100 µM.
